Assay results taken from PubChem BioAssay AID1963835 (Molecular Pharmacology Branch, DTP, NCI, 2024).
Values joined by “and” are separate entries in the source; they are usually repeats but may differ in a detail not shown here. Equal entries are not always repeated.

System: 699152-130-R-J1-PDC complex spheroid viability
Test: Anticancer human tumor 699152-130-R-J1-PDC patient-derived pancreatic carcinoma cell line growth inhibition [POLQ]
Conditions: for viability, T/C: stronger effect = lower value; for IC50: curve of compound
Description: Multicellular complex tumor spheroid response to Polymerase (POL) inhibitors (novobiocin, ART-558, RP6685) in combination with a variety of drugs and investigational agents in selected tumor cell lines
The POL inhibitors (novobiocin, ART-558, and RP6685) were evaluated both individually and in combination with standard of care and investigational anticancer small molecules within a complex spheroid model of solid tumors. . Complex spheroids include a stromal component modeled by human endothelial cells (HUVEC) and fibroblasts modeled by human mesenchymal stem cells (MSCs). The concentration ranges selected for each drug and investigational agent were based upon clinically achievable concentrations if the clinical Cmax of the agent was known.
Compounds. The drugs and investigational agents: novobiocin (NSC847541), ART-558 (NSC835418), RP-6685 (NSC848927), peposertib (NSC802822), ceralasertib (NSC780249), elimusertib (NSC800525), camonsertib (NSC841442), AZD-1390 (NSC803789), olaparib (NSC753686), talazoparib (NSC767125), rucaparib (NSC756644), sotorasib (NSC818433), MRTX-1133 (NSC836407), SN-38 (NSC673596), topotecan (NSC609699), epotoside (NSC141540), doxorubicin (NSC123127), gemcitabine (NSC613327), 5-fluorouracil (NSC19893), paclitaxel (NSC125973), vemurafenib (NSC761431), MSA-2 (NSC828583), SN-011 (NSC837082), adavosertib (NSC754352), prexasertib (NSC758257), carboplatin (NSC241240) and oxaliplatin (NSC266046), were obtained from the National Cancer Institute (NCI) Developmental Therapeutics Program Chemical Repository (21). The FDA-approved anticancer drug set is available from the Developmental Therapeutics Program at https://dtp.cancer.gov/organization/dscb/obtaining/. […] The stock solutions were prepared in dimethyl sulfoxide (DMSO, Sigma-Aldrich, St. Louis, MO, cat. D2650), except for the platinum compounds which were prepared in saline (Quality Biological, Gaithersburg, MD, cat. 114-055-101), at 800-fold the tested concentration and stored at -70 degrees C prior to their use. All drugs and investigational agents were tested over a range starting from a high concentration at or near the clinical Cmax and decreasing in half-log increments. If the clinical Cmax for an agent had not been determined, the highest concentration tested was 10 microM, except for SN-38, which was tested at a high concentration of 1 microM.
Cell Culture. All cells were maintained in an incubator at 37 degrees C and 5% CO2 with 95% humidity. The PDC lines were cultured according to standard operating procedures established by the NCI PDMR (https://pdmr.cancer.gov). Table 3 of the manuscript, lists the cell lines along with the number of the three cell types plated to form the mct-spheroids and media for tumor cell growth. After thawing, all PDC lines, except 997537-175-T-J1-PDC and 415267-285-R-J2-PDC, were cultured in Matrigel-coated flasks prepared with a working solution of 1X Ham's F-12 nutrient mix, without supplementation (Thermo Fisher Scientific, cat. 11765054), 100 U/mL penicillin-streptomycin (Thermo Fisher Scientific, cat. 15140122), and 2.5% Matrigel (Corning Inc., Corning, NY, cat. 354248) for the first three passages. The two PDC lines 997537-175-T-J1-PDC and 415267-285-R-J2-PDC were cultured on uncoated flasks. The 857933-349-R-J2-PDC line was cultured in 6C/Colon 1B media containing advanced DMEM/F-12 (Thermo Fisher Scientific, cat. 12634028), 10 mM HEPES (Thermo Fisher Scientific, cat. 15630080), 1X GlutaMAX supplement (Thermo Fisher Scientific, cat. 35050061), 0.1 mg/mL primocin (InvivoGen, San Diego, CA, cat. ant-pm-2), 10% defined fetal bovine serum, heat inactivated (HyClone Laboratories Inc., Logan, UT, cat. SH30070.03HI), 50% L-WRN conditioned media (ATCC, cat. CRL-3276), 1.25 mM N-Acetyl-L-cysteine (Sigma-Aldrich, cat. A9165), 10 mM nicotinamide (Sigma-Aldrich, cat. N0636), 1X B-27 supplement (Thermo Fisher Scientific, cat. 17504044), 1X N-2 supplement (Thermo Fisher Scientific, cat. […]
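Note: spheroids exposed to agents for 7 days before viability reading.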
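Throughout, for viability, T/C: percent of DMSO vehicle control viability so 100% = vehicle and 0% = no viable signal.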

Compound | viability, T/C (compound 0.00949 µM) | viability, T/C (compound 0.03 µM) | viability, T/C (compound 0.0949 µM) | viability, T/C (compound 0.3 µM) | viability, T/C (compound 0.949 µM) | viability, T/C (compound 3 µM) | IC50 | viability, T/C (compound 0.00316 µM) | viability, T/C (compound 0.01 µM) | viability, T/C (compound 0.0316 µM) | viability, T/C (compound 0.1 µM) | viability, T/C (compound 0.316 µM) | viability, T/C (compound 1 µM) | viability, T/C (compound 3.16 µM) | viability, T/C (compound 10 µM)
CC(=O)O[C@H]1C(=O)[C@@]2(C)[C@H]([C@H](OC(=O)c3ccccc3)[C@]3(O)C[C@H](OC(=O)[C@H](O)[C@@H](NC(=O)c4ccccc4)c4ccccc4)C(C)=C1C3(C)C)[C@]1(OC(C)=O)CO[C@@H]1C[C@@H]2O | 71.7% and 80.5% and 82.2% | 56% and 69.6% and 61.2% | 54.2% and 56.2% and 58.5% | 62% and 62.2% and 59.9% | 66.9% and 69% and 60% | 70.2% and 72.3% and 64.6% | > 3000 nM | – | – | – | – | – | – | – | –
COc1cccc(OCCCN)c1-c1cc(Nc2cnc(C#N)cn2)n[nH]1 | – | – | – | – | – | – | > 1000 nM | 94% and 98.1% and 84.3% | 84.5% and 83.7% and 91.9% | 66% and 60% and 74.3% | 56.1% and 57.8% and 62.7% | 55.3% and 56.8% and 60.6% | 50.4% and 52.5% and 58.4% | – | –
COc1cccc2c1C(=O)c1c(O)c3c(c(O)c1C2=O)CC(O)(C(=O)CO)CC3OC1CC(N)C(O)C(C)O1 (configuration not stated) | – | – | – | – | – | – | 286 nM and 257 nM and 320 nM | – | – | 72.5% and 86.9% and 85.1% | 60.1% and 60.5% and 89.2% | 48.5% and 51.9% and 44.8% | 31.2% and 30.2% and 27.1% | 2.58% and 1.68% and 2.6% | 11.1% and 13.1% and 12.4%
COc1cc2cc(C(=O)CCC(=O)O)sc2cc1OC | – | – | – | – | – | – | > 10000 nM | – | – | 101% (2×) and 90.4% | 98.7% and 97.3% and 103% | 94.8% and 103% and 101% | 102% and 96.4% and 105% | 111% (2×) and 91.5% | 99.7% and 93.3% and 99.9%
CC1COCCN1c1cc(C2(S(C)(=N)=O)CC2)nc(-c2ccnc3[nH]ccc23)n1 (configuration not stated) | – | – | – | – | – | – | > 10000 nM | – | – | 105% and 93.7% and 91.8% | 102% and 97.1% and 94.4% | 90.2% and 91.5% and 105% | 88.6% and 97.4% and 88.8% | 76% and 82.6% and 74% | 73.1% and 68.3% and 65.9%
C#Cc1c(F)ccc2cc(O)cc(-c3ncc4c(N5CC6CCC(C5)N6)nc(OCC56CCCN5CC(F)C6)nc4c3F)c12 (configuration not stated) | – | – | – | – | – | – | < 31.6 nM | – | – | 24.6% and 29.7% and 27.3% | 19.7% and 18.3% and 19.8% | 18.1% and 15.8% and 16.3% | 15% and 13.9% and 15.6% | 14.4% and 11.4% and 13.7% | 12.7% and 13.8% and 11%
